Here are results for 87 compounds from article PMC12040169 (PLOS Biology, 2025).

The viability is a read-out of living cells in per cent, often relative to untreated cells.

A short description of one series: in vitro. To be noted: human, hela cells, % viability.
Turning to `Cc1nc(C)c(C(=O)c2coc3ccc(O)cc23)o1` [CBK027631], the viability at 28.5 h, 10 µM was 94.1%.
Consider `O=C(CN1CCCCC1)Nc1cccc(-n2cnnn2)c1` [CBK027661], for which the viability at 28.5 h, 10 µM was 105%.
Still for that read-out and setting: as for `Cn1c(=O)c(-c2nc3ccccc3[nH]2)c(O)c2ccccc21` [CBK027678], the figure is 92.7%; as for `c1ccc(SCCN2CCOCC2)cc1` [CBK027679], 97.8%.
On the same count and under the same terms, under `O=c1nc(C(F)(F)F)n2ccccc2n1` [CBK027683] stands 97.2%.
Consider `Brc1ccc(-n2cnnn2)cc1` [CBK027696], for which the viability at 28.5 h, 10 µM is 110%.
The same measure, in the same setting: under `NCC1OCCc2ccccc21` (stereo not drawn) [CBK027717] stands 108%; under `CCCCCC1=NN(C(=O)OCC)C(O)(C(F)(F)F)C1` (stereo not drawn) [CBK027739], 94.9%.
The same measure, in the same setting: under `Cc1ccc(SCc2nc3ncccn3c2Br)cc1` [CBK027744] stands 85.2%; under `CC(=O)NC(O)C(=O)c1cccs1` (stereo not drawn) [CBK027756], 111%.
Still for that read-out and setting: under `S=c1[nH]cnc2sc3c(c12)CCCC3` [CBK027787] stands 73.7%; under `Cc1n[nH]c(C)c1Sc1nnc(O)nc1O` [CBK027833], 87.2%.
Take `N#Cc1ccccc1CSc1ncn[nH]1` [CBK027835]: the viability at 28.5 h, 10 µM turned out to be 95.1%.
In the case of `CCCCOC(=O)CCNc1n[nH]c(=O)[nH]c1=O` [CBK027838], the viability at 28.5 h, 10 µM amounted to 97.3%.
The same measure, in the same setting: as for `CCOC(=O)Nc1ccsc1C(=O)OC` [CBK027880], the figure is 88.6%; as for `O=C(O)c1cc(-c2ccco2)nc2ccccc12` [CBK027882], 98.3%; as for `Cc1nnc(N/N=C\c2c(Cl)cccc2Cl)[nH]c1=O` [CBK027921], 110%.
On the same count and under the same terms, under `C(=N\N1CCOCC1)/c1cccs1` [CBK027942] stands 96.9%; under `CC(NCC(O)COCc1ccc(Cl)cc1)c1ccccc1` (stereo not drawn) [CBK027972C], 87.5%.
In the case of `O=C(O)C1CCC(CNS(=O)(=O)c2ccc(Br)cc2)CC1` (stereo not drawn) [CBK027994], the viability at 28.5 h, 10 µM stood at 86.1%.
Same read-out and setting: as for `FC(F)Oc1ccc(NC(=S)NCCN2CCOCC2)cc1` [CBK028000], the figure is 87.7%; as for `CN(C)C(c1ccccc1)c1nnnn1C1CCCCC1` (stereo not drawn) [CBK028032], 105%.
On the same count and under the same terms, as for `CCCN(c1nc(C)c(Br)c(OC)n1)S(=O)(=O)c1ccc(C)cc1` [CBK028072], the figure is 105%; as for `CNc1nc(N)nc(OCC(F)(F)F)n1` [CBK028082], 89.4%; as for `CC(C)C(=O)N1N=C2CCCCC2C1(O)C(F)(F)F` (stereo not drawn) [CBK028091], 93.2%.
For `CCOC(=O)c1c(C)nc(-c2ccccc2)nc1NC(=O)C(C)C` [CBK028118], the viability at 28.5 h, 10 µM was 90.1%.
For `COc1ccc(C(CNCC(O)COc2cccc3c2CCCC3)c2ccccc2)cc1` (stereo not drawn) [CBK028144], the viability at 28.5 h, 10 µM was determined as 105%.
The same measure, in the same setting: under `CC#CC1CCCC2N(c3ccccc3)CCN12` (stereo not drawn) [CBK028191] stands 119%.
Still for that read-out and setting: as for `CCOC(=O)Nc1ccc2ccccc2n1` [CBK028207], the figure is 87.3%; as for `O=C(CCCc1ccccc1)Nc1cccnc1N1CCNCC1` [CBK028256T], 93.1%.
Still for that read-out and setting: under `O=C(Cc1c[nH]c2ccccc12)Nc1cccnc1N1CCNCC1` [CBK028265T] stands 105%; under `Cn1cc(CC(=O)Nc2ccc(N3CCNCC3)nc2)c2ccccc21` [CBK028275T], 72.1%.
For the compound `O=C(COc1ccccc1)Nc1ccccc1N1CCNCC1` [CBK028279T], the viability at 28.5 h, 10 µM was 108%.
On the same count and under the same terms, under `O=C(Nc1ccccc1N1CCNCC1)C1(c2ccccc2)CCCCC1` [CBK028281T] stands 99.9%.
For `COc1ccc(CCCC(=O)Nc2ccccc2N2CCNCC2)cc1OC` [CBK028283T], the viability at 28.5 h, 10 µM turned out to be 107%.
The same measure, in the same setting: as for `O=C(CCS(=O)(=O)c1ccccc1)Nc1ccccc1N1CCNCC1` [CBK028285T], the figure is 99.8%; as for `O=C(Cc1c[nH]c2ccccc12)Nc1ccccc1N1CCNCC1` [CBK028288T], 98.1%; as for `O=C(CCCOc1ccccc1)Nc1cccc(N2CCNCC2)c1` [CBK028290T], 95.4%.
Same read-out and setting: under `O=C(CCS(=O)(=O)c1ccccc1)NCc1ccccc1OC1CCNC1` (stereo not drawn) [CBK028296T] stands 95.9%; under `CN(CC(=O)NCc1ccccc1OC1CCNC1)C(=O)c1ccccc1` (stereo not drawn) [CBK028298T], 96.9%; under `CC(C)(C)CNc1ccc(S(=O)(=O)N2CCOC2=O)cc1` [CBK028347], 113%.
The same measure, in the same setting: as for `CC1CCN(C(=O)C2CCCCC2C(=O)O)CC1` (stereo not drawn) [CBK028392], the figure is 107%; as for `COc1ccc(CCCC(=O)Nc2ccc(N3CCNCC3)c3ccccc23)cc1OC` [CBK028406T], 105%.
Take `O=C(CCS(=O)(=O)c1ccccc1)Nc1ccc(N2CCNCC2)c2ccccc12` [CBK028408T]: the viability at 28.5 h, 10 µM stood at 92.6%.
Still for that read-out and setting: under `O=C(Nc1ccc(N2CCNCC2)c2ccccc12)c1ccccc1` [CBK028412T] stands 92.8%.
Same read-out and setting: as for `CN(CC(=O)Nc1cc2ccccc2c(N2CCNCC2)n1)C(=O)c1ccccc1` [CBK028421T], the figure is 93%; as for `O=C(COc1ccccc1)NCc1ccc(OC2CCNCC2)cc1` [CBK028425T], 98.2%.
Take `O=C(CCCOc1ccccc1)NCc1ccc(OC2CCNCC2)cc1` [CBK028427T]: the viability at 28.5 h, 10 µM was 92.1%.
For `Cn1cc(CC(=O)NCc2ccc(OC3CCNCC3)cc2)c2ccccc21` [CBK028430T], the viability at 28.5 h, 10 µM came out at 92.8%.
Still for that read-out and setting: under `S=C(Nc1cccnc1)N[C@H]1CC[C@@]2(c3cccnc3)CCN(Cc3ccccc3)[C@H]2C1` [CBK028450] stands 94.8%; under `CC(C)CNC(=S)N[C@H]1CC[C@@]2(c3cccnc3)CCN(Cc3ccccc3)[C@H]2C1` [CBK028460], 125%; under `NCC1CCN(c2cc(C(F)(F)F)c3scc(C(=O)NCCC4=CCCCC4)c3n2)CC1` [CBK028475], 83.2%.
For the compound `COc1ccc2sc(C)nc2c1` [CBK028488], the viability at 28.5 h, 10 µM is 101%.
With `COC(=O)CCC1(C)CN(C)CCC1=O` (stereo not drawn) [CBK028494], the viability at 28.5 h, 10 µM amounted to 85%.
Same read-out and setting: under `O=C(c1ccccc1Br)N1CCCCC1` [CBK028504] stands 87.6%; under `CC(O)(CC#N)c1ccccc1` (stereo not drawn) [CBK028508], 114%; under `N#CC(c1ccc(O)cc1)N1CCCCC1` (stereo not drawn) [CBK028556], 94.4%.
Turning to `C[n+]1cn(/N=C/c2ccco2)cn1` [CBK028562I], the viability at 28.5 h, 10 µM was 104%.
Same read-out and setting: under `O=C(O)C1(NS(=O)(=O)c2ccc(Cl)cc2)CCCCC1` [CBK028566] stands 111%; under `CC1CN(c2nccn(CCOc3ccc(Br)cc3)c2=O)CCN1` (stereo not drawn) [CBK028596T], 94.2%.
Turning to `O=c1c(N2CCCNCC2)nccn1CCOc1ccc(Br)cc1` [CBK028613T], the viability at 28.5 h, 10 µM stood at 95%.
Same read-out and setting: under `O=c1c(N2CCCNCC2)nccn1CCOc1ccc(Oc2ccccc2)cc1` [CBK028615T] stands 101%.
With `Fc1cc(F)c(OCCCCOc2nccnc2N2CCNCC2)cc1F` [CBK028624T], the viability at 28.5 h, 10 µM came out at 105%.
On the same count and under the same terms, as for `Cc1ccc(S(=O)(=O)Nc2sc3c(c2C(=O)N2CCN(C)CC2)CCCC3)cc1[N+](=O)[O-]` [CBK028650], the figure is 93.9%; as for `O=C(Nc1ccc(F)cc1)c1c(NS(=O)(=O)c2ccc(Oc3ccccc3)cc2)sc2c1CCCC2` [CBK028653], 96.7%; as for `O=C(Nc1ccc(F)cc1)c1c(NS(=O)(=O)Cc2ccccc2[N+](=O)[O-])sc2c1CCCC2` [CBK028654], 85.3%.
On the same count and under the same terms, under `O=C(c1c(NS(=O)(=O)c2cccc3cccnc23)sc2c1CCCC2)N1CCOCC1` [CBK028655] stands 84.2%.
Same read-out and setting: as for `CCCc1ccc(S(=O)(=O)Nc2ccc(C(=O)OC)cc2)cc1` [CBK028682], the figure is 99.5%; as for `COC(=O)c1ccc(NS(=O)(=O)c2cccc3cccnc23)cc1` [CBK028694], 104%.
In the case of `COC(=O)c1ccc(NS(=O)(=O)Cc2ccccc2)cc1` [CBK028699], the viability at 28.5 h, 10 µM was determined as 91.4%.
On the same count and under the same terms, under `CC(=O)Nc1cccc(NS(=O)(=O)c2ccc(N3CCNCC3)c3ccccc23)c1` [CBK028702C] stands 105%.
Still for that read-out and setting: under `Nc1nc2ccccc2c(=O)[nH]1` [CBK028707] stands 101%; under `C/C(=N/Nc1nc[nH]n1)c1ccc(Cl)c(Cl)c1` [CBK028722], 80%; under `CN(/N=C/c1cc(Br)cs1)c1ccc(Cl)nn1` [CBK028729], 94.1%.
Still for that read-out and setting: as for `Cc1cc(CN2CCCC2)cc(C)c1O` [CBK028736C], the figure is 96.3%; as for `OCCSc1ccc(C(F)(F)F)cn1` [CBK028739], 115%; as for `CCCc1cnc(N2CCOCC2)nc1` [CBK028742], 89%.
For the compound `CSc1nncc(-c2ccc(Cl)cc2)n1` [CBK028747], the viability at 28.5 h, 10 µM was 77.1%.
On the same count and under the same terms, as for `OCCN1CCN(c2nccc(C(F)(F)F)n2)CC1` [CBK028754], the figure is 107%.
On the same count and under the same terms, as for `Clc1ccc(C2N(Cc3ccccc3)CCC3CCCCN32)cc1Cl` (stereo not drawn) [CBK028769], the figure is 86.6%.
On the same count and under the same terms, under `c1ccc2c(CN3CCCNCC3)cccc2c1` [CBK028773] stands 81%; under `CCCCN1CC(C(=O)OCC)=C(O)C1=O` [CBK028774], 110%; under `O=C1CC2(CCCC2)C(=O)N1CCNc1nccc(C(F)(F)F)n1` [CBK028777], 97.4%.
Consider `O=C(NCc1ccco1)C1CCN(c2nccc(C(F)(F)F)n2)CC1` [CBK028778], for which the viability at 28.5 h, 10 µM is 105%.
Same read-out and setting: under `Nc1cc2c(cc1Cl)C(=O)NC2=O` [CBK028783] stands 101%; under `CC(=O)Nc1ccc(S(N)(=O)=O)cc1Cl` [CBK028784], 109%.

The same series, now with this note: human, hela cells, % viability, bulk resorufin, single well.
As to `O=C(Nc1ccccc1)Nc1cnns1` [CBK028557], the viability at 28.5 h, 10 µM turned out to be 102%.
